Reference: patent publication US9856224B2, “Stable sodium channel blockers” (PARION SCIENCES, INC., priority 2014, dated 2018)

Biological target: T1, airway epithelial sodium currents (epithelial sodium channel, ENaC) (Canis lupus familiaris, UniProt A0A8I3MKE6+A0A8I3Q679+Q95165)
T1 construct: endogenous in cells; host or cells: primary canine airway epithelial cells cultured at air-liquid interface, mounted in Ussing chambers
T1 sequence (A0A8I3Q679 1-649): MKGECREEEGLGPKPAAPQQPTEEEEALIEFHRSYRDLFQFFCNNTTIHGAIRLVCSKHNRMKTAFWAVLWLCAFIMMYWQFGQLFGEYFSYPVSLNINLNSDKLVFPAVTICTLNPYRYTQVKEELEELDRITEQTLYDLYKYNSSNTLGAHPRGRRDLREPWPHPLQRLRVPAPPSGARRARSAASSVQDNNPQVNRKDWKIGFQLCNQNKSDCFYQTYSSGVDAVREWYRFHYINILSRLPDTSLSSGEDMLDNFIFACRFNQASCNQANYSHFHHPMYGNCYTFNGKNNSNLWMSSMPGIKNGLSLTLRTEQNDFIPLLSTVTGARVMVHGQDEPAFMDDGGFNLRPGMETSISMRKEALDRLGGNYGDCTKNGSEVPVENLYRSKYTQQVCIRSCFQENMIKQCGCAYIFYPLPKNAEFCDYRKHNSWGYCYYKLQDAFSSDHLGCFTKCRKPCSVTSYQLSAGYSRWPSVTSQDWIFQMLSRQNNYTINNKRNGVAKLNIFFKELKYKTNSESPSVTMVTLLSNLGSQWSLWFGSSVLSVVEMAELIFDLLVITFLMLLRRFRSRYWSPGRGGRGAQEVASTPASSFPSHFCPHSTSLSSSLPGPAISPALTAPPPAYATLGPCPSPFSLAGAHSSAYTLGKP
T1 sequence (Q95165 1-641): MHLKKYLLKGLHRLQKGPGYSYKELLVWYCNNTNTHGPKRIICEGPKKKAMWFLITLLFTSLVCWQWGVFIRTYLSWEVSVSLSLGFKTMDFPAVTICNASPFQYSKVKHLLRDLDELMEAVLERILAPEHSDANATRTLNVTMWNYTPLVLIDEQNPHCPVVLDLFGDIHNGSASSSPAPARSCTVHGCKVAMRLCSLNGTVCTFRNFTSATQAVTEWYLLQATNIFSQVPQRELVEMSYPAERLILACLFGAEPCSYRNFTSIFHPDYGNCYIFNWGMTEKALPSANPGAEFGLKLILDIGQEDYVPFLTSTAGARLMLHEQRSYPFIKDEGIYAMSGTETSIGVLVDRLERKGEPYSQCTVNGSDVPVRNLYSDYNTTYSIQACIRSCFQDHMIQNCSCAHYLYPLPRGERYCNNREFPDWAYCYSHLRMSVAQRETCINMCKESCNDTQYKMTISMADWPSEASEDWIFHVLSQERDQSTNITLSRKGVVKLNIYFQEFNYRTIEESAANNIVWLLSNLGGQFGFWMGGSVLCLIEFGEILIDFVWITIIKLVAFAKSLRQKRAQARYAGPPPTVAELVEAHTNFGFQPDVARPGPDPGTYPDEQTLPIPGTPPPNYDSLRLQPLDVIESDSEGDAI
T1 sequence (A0A8I3MKE6 1-646): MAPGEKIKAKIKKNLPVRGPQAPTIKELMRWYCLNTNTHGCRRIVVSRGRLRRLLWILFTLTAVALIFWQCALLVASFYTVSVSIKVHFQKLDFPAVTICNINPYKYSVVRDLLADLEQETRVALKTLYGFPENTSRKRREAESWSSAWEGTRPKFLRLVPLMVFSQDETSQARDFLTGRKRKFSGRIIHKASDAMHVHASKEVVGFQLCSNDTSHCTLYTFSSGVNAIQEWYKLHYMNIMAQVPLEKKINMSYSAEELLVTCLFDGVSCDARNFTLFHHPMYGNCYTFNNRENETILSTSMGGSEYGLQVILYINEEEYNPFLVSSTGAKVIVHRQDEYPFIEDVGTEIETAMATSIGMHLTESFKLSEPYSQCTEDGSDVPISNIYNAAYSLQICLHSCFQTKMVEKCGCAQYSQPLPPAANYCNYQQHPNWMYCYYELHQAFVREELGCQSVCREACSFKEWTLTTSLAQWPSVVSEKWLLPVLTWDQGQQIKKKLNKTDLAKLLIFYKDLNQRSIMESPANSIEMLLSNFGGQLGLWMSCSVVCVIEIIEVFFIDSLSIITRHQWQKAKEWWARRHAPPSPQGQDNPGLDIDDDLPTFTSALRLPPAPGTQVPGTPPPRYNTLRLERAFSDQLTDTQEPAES
Experiment: In vitro measure of sodium channel blocking activity (short circuit current, Ussing chambers)
Type: cell-based
Conditions: freshly excised cells from canine airways; lumenal drug addition; short circuit current (ISC)
Protocol: One assay used to assess mechanism of action and/or potency of the compounds of the present invention involves the determination of lumenal drug inhibition of airway epithelial sodium currents measured under short circuit current (ISC) using airway epithelial monolayers mounted in Ussing chambers. Cells obtained from freshly excised human, dog, sheep or rodent airways are seeded onto porous 0.4 micron Snapwell™ Inserts (CoStar), cultured at air-liquid interface (ALI) conditions in hormonally defined media, and assayed for sodium transport activity (ISC) while bathed in Krebs Bicarbonate Ringer (KBR) in Using chambers. All test drug additions are to the lumenal bath with half-log dose addition protocols (from 1×10^−11 M to 3×10^−5 M), and the cumulative change in ISC (inhibition) recorded. […] After the maximal concentration (5×10^−5 M) is administered, the lumenal bath is exchanged three times with fresh drug-free KBR solution, and the resultant ISC measured after each wash for approximately 5 minutes in duration. […] All data from the voltage clamps are collected via a computer interface and analyzed off-line. Dose-effect relationships for all compounds are considered and analyzed by the Prism 3.0 program. IC50 values, maximal effective concentrations, and reversibility are calculated and compared to amiloride and benzamil as positive controls. […]

IC50: 13.2 nM
SMILES: N=C(N)NCCCC[C@H](NC[C@H](O)[C@@H](O)[C@H](O)[C@H](O)CO)C(=O)NCCOc1ccc(CCCCNC(=N)NC(=O)c2nc(Cl)c(N)nc2N)cc1 [Compound I, 3,5-diamino-6-chloro-N—(N-(4-(4-(2-((S)-6-guanidino-2-((2S,3R,4R,5R)-2,3,4,5,6-pentahydroxyhexylamino)hexanamido)ethoxy)phenyl)butyl)carbamimidoyl)pyrazine-2-carboxamide]
